The record followed here is patent US9187471B2, “Pyrido [4,3-b] indole and pyrido [3,4-b] indole derivatives and methods of use” (Medivation Technologies, Inc., priority 2010, dated 2015).

Molecules are shown by their SMILES.

Assay [1] addresses T1, human recombinant histamine H1 receptor (Homo sapiens, UniProt P35367).
T1 construct: expressed in transfected cells; host or cells: CHO-K1
In words: Histamine H1 radioligand binding ([3H]Pyrilamine). Particulars: read-out: Histamine H1 Binding (1 μM), percent inhibition of specific binding; compound at 1 μM; 1.2 nM [3H]Pyrilamine. An outline of the steps: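 Results expressed as percent inhibition of specific [3H]pyrilamine binding, counted on filters after washing. Receptor source: CHO-K1 cells expressing recombinant human H1, in modified Tris-HCl buffer (50 mM, pH 7.4; 2 mM MgCl2, 100 mM NaCl, 250 mM sucrose). 1 μM pyrilamine defined non-specific binding.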

For assay [2], the target named is T2, human recombinant serotonin (5-Hydroxytryptamine) 5-HT5A receptor (Homo sapiens, UniProt P47898).
T2 construct: expressed in transfected cells; host or cells: CHO-K1
T2 sequence (P47898 whole entry): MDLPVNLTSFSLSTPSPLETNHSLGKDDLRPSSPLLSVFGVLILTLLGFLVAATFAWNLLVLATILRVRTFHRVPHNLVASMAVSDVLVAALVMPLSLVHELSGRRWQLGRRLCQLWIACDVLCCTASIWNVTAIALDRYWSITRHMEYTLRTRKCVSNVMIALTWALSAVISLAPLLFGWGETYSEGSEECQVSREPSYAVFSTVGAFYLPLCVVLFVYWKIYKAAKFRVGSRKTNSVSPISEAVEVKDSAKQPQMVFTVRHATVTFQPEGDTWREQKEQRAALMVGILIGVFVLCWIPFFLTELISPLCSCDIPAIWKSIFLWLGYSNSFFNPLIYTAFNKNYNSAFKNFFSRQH
As to the kind of experiment: Serotonin 5-HT5A radioligand binding ([3H]LSD). Particulars: compound at 0.1 μM; read-out: Inhibition of ligand binding, Serotonin 5-HT5A (percent inhibition of specific binding). Here is the method:
Compounds of the invention were incubated with 1.7 nM [^3H]Lysergic acid diethylamide (LSD) for 60 min at 37° C. […] Receptor proteins were filtered and washed, the filters were counted to determine [^3H]LSD specifically bound.

The target in assay [3] is T3, human recombinant serotonin (5-Hydroxytryptamine) 5-HT2C receptor (Homo sapiens, UniProt P28335).
T3 construct: expressed in transfected cells; host or cells: CHO-K1
T3 sequence (P28335 33-458): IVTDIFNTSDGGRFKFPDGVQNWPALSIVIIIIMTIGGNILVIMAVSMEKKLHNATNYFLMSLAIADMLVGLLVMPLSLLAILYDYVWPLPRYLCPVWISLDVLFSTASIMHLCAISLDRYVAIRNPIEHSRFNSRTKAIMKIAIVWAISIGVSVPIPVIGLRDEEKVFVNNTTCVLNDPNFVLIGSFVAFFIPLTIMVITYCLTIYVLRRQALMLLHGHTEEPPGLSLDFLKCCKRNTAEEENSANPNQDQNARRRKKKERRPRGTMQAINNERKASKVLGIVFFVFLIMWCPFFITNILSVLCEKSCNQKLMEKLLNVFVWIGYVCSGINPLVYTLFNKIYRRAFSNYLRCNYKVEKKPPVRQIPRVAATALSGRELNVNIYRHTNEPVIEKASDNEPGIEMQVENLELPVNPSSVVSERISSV
As to the kind of experiment: Serotonin 5-HT2C radioligand binding ([3H]Mesulergine). Particulars: compound at 0.1 μM; read-out: Inhibition of ligand binding, Serotonin 5-HT2C (percent inhibition of specific binding). The protocol: Compounds of the invention were incubated with 1 nM [^3H]Mesulergine for 60 min at 25° C. Non-specific binding was estimated in the presence of 1 μM Mianserin. Receptor proteins were filtered and washed, the filters were then counted to determine [^3H]Mesulergine specifically bound.

In assay [4] the target is T4, human recombinant adrenergic α2A receptor (Homo sapiens, UniProt P08913).
T4 construct: expressed in transfected cells; host or cells: insect Sf9 cells
T4 sequence (P08913 1-465): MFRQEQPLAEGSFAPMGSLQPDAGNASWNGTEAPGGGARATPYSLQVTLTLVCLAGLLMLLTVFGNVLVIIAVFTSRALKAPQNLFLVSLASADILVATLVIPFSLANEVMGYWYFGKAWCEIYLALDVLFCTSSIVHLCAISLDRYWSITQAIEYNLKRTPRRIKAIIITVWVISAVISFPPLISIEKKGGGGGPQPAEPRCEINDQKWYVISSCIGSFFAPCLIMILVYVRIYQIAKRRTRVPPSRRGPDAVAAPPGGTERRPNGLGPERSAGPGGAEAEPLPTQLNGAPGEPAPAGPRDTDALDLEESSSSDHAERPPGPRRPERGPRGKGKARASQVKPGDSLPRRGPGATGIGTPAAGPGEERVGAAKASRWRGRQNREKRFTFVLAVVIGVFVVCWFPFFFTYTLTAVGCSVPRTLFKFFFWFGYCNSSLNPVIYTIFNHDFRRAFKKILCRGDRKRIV
As to the kind of experiment: Adrenergic α2A radioligand binding ([3H]MK-912). The conditions noted are these: read-out: Adrenergic (0.1 μM) a2A, percent inhibition of specific binding; compound at 0.1 μM; 1 nM [3H]MK-912. The protocol: To evaluate in radioligand binding assays the activity of compounds of the invention, human recombinant adrenergic α2A receptor expressed in insect Sf9 cells (Uhlen, S. et al, J. Pharmacol. Exp. Ther. 271:1558, 1994) in a modified Tris-HCl buffer (50 mM Tris-HCl, pH 7.4, 12.5 mM MgCl2, 2 mM EDTA) was used. Compounds of invention were incubated with 1 nM [^3H]MK-912 for 60 min at 25° C. MK-912 is (2S-trans)-1,3,4,5′,6,6′,7,12b-octahydro-1′,3′-dimethyl-spiro[2H-benzofuro[2,3-a]quinolizine-2,4′(1′H)-pyrimidin]-2′(3′H)-one hydrochloride Non-specific binding was estimated in the presence of 10 μM WB-4101 (2-(2,6-Dimethoxyphenoxyethyl)aminomethyl-1,4-benzodioxane hydrochloride). Receptor proteins were filtered and washed, the filters were then counted to determine [^3H]MK-912 specifically bound. […] Compounds of the invention were tested in this biochemical assay and percent inhibition of specific binding was determined.

The next assay addresses T5, Adrenergic α1B (Rattus norvegicus, UniProt P15823).
T5 construct: rat adrenergic α1D receptor obtained from Wistar Rat liver; from tissue; host or cells: Wistar rat liver
T5 sequence (P15823 1-515): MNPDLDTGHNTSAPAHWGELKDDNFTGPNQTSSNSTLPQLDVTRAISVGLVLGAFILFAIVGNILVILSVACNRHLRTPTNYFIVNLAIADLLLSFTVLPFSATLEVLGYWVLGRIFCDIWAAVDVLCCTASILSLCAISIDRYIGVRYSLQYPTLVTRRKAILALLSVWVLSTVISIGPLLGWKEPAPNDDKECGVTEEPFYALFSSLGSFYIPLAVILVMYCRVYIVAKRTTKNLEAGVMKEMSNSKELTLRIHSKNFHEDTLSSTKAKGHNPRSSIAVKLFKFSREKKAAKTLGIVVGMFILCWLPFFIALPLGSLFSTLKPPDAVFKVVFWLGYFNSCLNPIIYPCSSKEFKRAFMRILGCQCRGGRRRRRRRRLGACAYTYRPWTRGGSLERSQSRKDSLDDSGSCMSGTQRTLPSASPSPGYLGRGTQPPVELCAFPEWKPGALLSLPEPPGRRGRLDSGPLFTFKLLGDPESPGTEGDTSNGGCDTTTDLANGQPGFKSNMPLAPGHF
As to the kind of experiment: Adrenergic α1B radioligand binding ([3H]Prazosin). The conditions noted are these: read-out: Adrenergic (0.1 μM) a1B, percent inhibition of specific binding; compound at 0.1 μM; 0.25 nM [3H]Prazosin; Wistar Rat liver.

T1 sequence (P35367 whole entry): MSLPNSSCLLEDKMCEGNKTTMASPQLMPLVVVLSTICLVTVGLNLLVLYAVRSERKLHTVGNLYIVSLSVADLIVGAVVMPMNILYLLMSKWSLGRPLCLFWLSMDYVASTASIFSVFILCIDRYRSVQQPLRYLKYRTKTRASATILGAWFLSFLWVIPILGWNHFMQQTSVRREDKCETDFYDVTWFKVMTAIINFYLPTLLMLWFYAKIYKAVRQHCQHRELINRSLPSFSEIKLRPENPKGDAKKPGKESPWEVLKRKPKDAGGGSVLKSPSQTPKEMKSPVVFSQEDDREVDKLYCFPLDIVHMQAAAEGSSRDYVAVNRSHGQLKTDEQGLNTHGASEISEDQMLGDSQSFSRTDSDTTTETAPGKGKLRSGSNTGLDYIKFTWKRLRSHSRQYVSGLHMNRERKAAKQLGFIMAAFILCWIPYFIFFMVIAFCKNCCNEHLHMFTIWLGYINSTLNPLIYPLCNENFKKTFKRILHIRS
Procedure for Adrenergic α1B: To evaluate in radioligand binding assays the activity of compounds of the invention, rat adrenergic α1D receptor obtained from Wistar Rat liver (Garcia-S'ainz, J. et al, Biochem. Biophys. Res. Commun. 186:760, 1992; Michel, A. et al, Br. J. Pharmacol. 98:883, 1989) in a modified Tris-HCl buffer (50 mM Tris-HCl buffer, pH 7.4, 0.5 mM EDTA) was used. Compounds of the invention were incubated with 0.25 nM [^3H]Prazosin for 60 min at 25° C. Non-specific binding was estimated in the presence of 10 μM phentolamine Receptor proteins were filtered and washed, the filters were then counted to determine [^3H]Prazosin specifically bound. […] Compounds of the invention were tested in this biochemical assay and percent inhibition of specific binding was determined.

In general, inhibition refers to the share of the control response that was lost under treatment. With `Cc1ccc2c(c1)c1c(n2-c2ccccc2-c2cnn(C)c2)CCN(C)C1` [Compound No. 86, 2,8-dimethyl-5-(2-(1-methyl-1H-pyrazol-4-yl)phenyl)-2,3,4,5-tetrahydro-1H-pyrido[4,3-b]indole], the inhibition at 1 µM in assay [1] amounted to 47%. The inhibition at 0.1 µM in assay [2] was found to be 37%; in assay [3] it was 71%.
On to `Cc1ccc2c(c1)c1c(n2-c2ccccc2-c2cncc3ccccc23)CCN(C)C1` [Compound No. 87, 5-(2-(isoquinolin-4-yl)phenyl)-2,8-dimethyl-2,3,4,5-tetrahydro-1H-pyrido[4,3-b]indole], for which, in assay [1], the inhibition at 1 µM came out at 47%. Also, the inhibition at 0.1 µM in assay [2] was determined as 24%; in assay [3], 66%.
The matching figures for `Cc1ccc2c(c1)c1c(n2-c2cnc3ccccc3c2)CCN(C)C1` [Compound No. 88, 2,8-dimethyl-5-quinolin-3-yl-2,3,4,5-tetrahydro-1H-pyrido[4,3-b]indole]: 18%, 22% and 90%.
With `Cc1ccc2c(c1)c1c(n2-c2ccccc2-c2cccn2C)CCN(C)C1` [Compound No. 100, 2,8-dimethyl-5-(2-(1-methyl-1H-pyrrol-2-yl)phenyl)-2,3,4,5-tetrahydro-1H-pyrido[4,3-b]indole], in assay [1], the inhibition at 1 µM was found to be 36%. In addition, the values for the inhibition at 0.1 µM in assay [2], in assay [3] and in assay [4] were 11%, 72% and 95%, respectively.
For the molecule `Cc1ccc2c(c1)c1c(n2-c2ccccc2-c2sccc2C)CCN(C)C1` [Compound No. 102, 2,8-dimethyl-5-(2-(3-methylthiophen-2-yl)phenyl)-2,3,4,5-tetrahydro-1H-pyrido[4,3-b]indole], the inhibition at 1 µM in assay [1] was determined as 57%. Besides, the inhibition at 0.1 µM amounted to 10% in assay [2] and 90% in assay [3].
For `Cc1ccc2c(c1)c1c(n2-c2ccccc2-c2cc3ccccc3s2)CCN(C)C1` [Compound No. 103, 5-(2-(benzo[b]thiophen-2-yl)phenyl)-2,8-dimethyl-2,3,4,5-tetrahydro-1H-pyrido[4,3-b]indole], in that order: 10%, 42% and 43%.
Consider `Cc1ccc2c(c1)c1c(n2-c2ccccc2-c2cn[nH]c2)CCN(C)C1` [Compound No. 104, 5-(2-(1H-pyrazol-4-yl)phenyl)-2,8-dimethyl-2,3,4,5-tetrahydro-1H-pyrido[4,3-b]indole], for which the inhibition at 0.1 µM is 9% on Adrenergic α1B, 20% in assay [2], 77% in assay [3] and 14% in assay [4]. In addition, the inhibition at 1 µM in assay [1] was 24%.
As to `Cc1ccc2c(c1)c1c(n2-c2ccccc2-c2cccc3[nH]ncc23)CCN(C)C1` [Compound No. 105, 5-(2-(1H-indazol-4-yl)phenyl)-2,8-dimethyl-2,3,4,5-tetrahydro-1H-pyrido[4,3-b]indole], in assay [1], the inhibition at 1 µM worked out at 34%. Moreover, the inhibition at 0.1 µM was 56% in assay [2] and 82% in assay [3].
